These results are taken from US20040009233A1, “Shark meat extract” (priority 2000, published 2004).

The test concerns Angiogenesis. As to the kind of experiment: Inhibition of angiogenesis by fatty acid samples. The format is cell-based. The text has this:
The phospholipid fatty acids usually include docosahexaenoic acid (DHA), arachidonic acid (AA), eicosapentaenoic acid (EPA), and others.

Turning to `CCCCC/C=C\C/C=C\CCCCCCCC(=O)O` [Linoleic], the “Inhibition of Angiogenesis” value (sample concentration 5 μg/ml) is recorded as 82%.

In the case of `CCCCCC/C=C\CCCCCCCC(=O)O` [Palmitoleic], the “Inhibition of Angiogenesis” value (sample concentration 5 μg/ml) was 70%.

Regarding `CCCCC/C=C\C/C=C\C/C=C\C/C=C\CCCC(=O)O` [Arachidonic, arachidonic acid], the inhibition at 5 µg/mL (sample concentration 5 μg/ml) came to 84%.

For `CCCC/C=C\CCCCCCCC(=O)O` [Myristoleic], the “Inhibition of Angiogenesis” value (sample concentration 10 μg/ml) stood at 58%.

Where the note is “sample concentration 5 μg/ml”, `CC/C=C\C/C=C\C/C=C\C/C=C\C/C=C\C/C=C\CCC(=O)O` [Docosahexaenoic (DHA), docosahexaenoic acid] gave an inhibition at 5 µg/mL of 88%.

Regarding `CCCCCCCC/C=C\CCCCCCCCCCCC(=O)O` [Erucic], the “Inhibition of Angiogenesis” value (sample concentration 200 μg/ml) is listed as 30%.

`CCCCCCCC/C=C\CCCCCCCC(=O)O` [Oleic, oleic acid]: the inhibition at 100 µg/mL (read-out: Inhibition of Angiogenesis) was 0%.

With `CCCCCCCC/C=C\CCCCCCCCCCCCCC(=O)O` [Nervonic], the “Inhibition of Angiogenesis” value (sample concentration 100 μg/ml) came out at 0%.

Take `CC/C=C\C/C=C\C/C=C\CCCCCCCC(=O)O` [α-Linolenic]: the “Inhibition of Angiogenesis” value (sample concentration 20 μg/ml) is listed as 66%.

`CC/C=C\C/C=C\C/C=C\C/C=C\C/C=C\CCCC(=O)O` [Eicosapentaenoic (EPA), eicosapentaenoic acid]: the inhibition at 3 µg/mL (sample concentration 3 μg/ml) is 100%.

As for `CC/C=C\C/C=C\C/C=C\C/C=C\C/C=C\CCCCCC(=O)O` [Docosapentaenoic], the “Inhibition of Angiogenesis” value (sample concentration 4 μg/ml) was 71%.

Take `CCCCCCCCCCC/C=C\CCCCC(=O)O` [Petroselenic]: where the note is “sample concentration 100 μg/ml”, the “Inhibition of Angiogenesis” value is recorded as 58%.

`CCCCCCC=CCCCCCCCCC(=O)O` [Heptadecenoic]: for the setting “sample concentration 20 μg/ml”, the “Inhibition of Angiogenesis” value was 83%.
